From patent US20040029197A1, “Novel human cancer/testis antigen and gene thereof” (priority 2000, published 2004)
Where no end group is shown, it is not given here.

System: C1R-A24 cells
Assay: Cytotoxity test (51Cr release) with peptide-stimulated CD8-positive T cells of a cancer patient
Format: cell-based, human
Settings: target C1R-A24 cells added with 1 iM of the peptide, effecter CD8-positive T cells after MLPC twice, six hours, FIG. 8
Experimental: Peripheral blood of a patient whose D40 gene expression in the tumor tissue was observed by RT-PCR method was multi-layered in Ficoll-Conray solution with specific gravity of 1.082 and the blood was separated to plasma, lymphocyte phase, Ficoll-Conray phase and erythrocyte phase from the top by centrifugation of 1500 rpm for 30 min. The lymphocyte phase was collected and cultured for a day in AIM-V, a serum-free medium, after which the cell population adhered to the bottom of the culture flask and the suspended cell population were separated by gently shaking the flask. The adhered cell population is a cell population called PBMC (peripheral blood mononuclear cells) which includes B cells, macrophages and dendritic cells that are so-called antigen-presenting cells (APC). […] The APC after the culture were treated with radioactivity in order to get rid of their proliferation ability.
On the other hand, the suspended cell population mainly contains T cells and these suspended cells were cultured in AIM−V+IL−2 for four days. […] These CD8-positive T cells were added to APC, which have been treated with radioactivity as mentioned above, and cultured for two days. […] Then the radioactivity of ^51Cr released from the target C1R-A24 cells were measured and the cytotoxity activity (%) was calculated. […]

Q: “SYTIEINHRL [SYTIEINHRL, Ser-Tyr-Thr-Ile-Glu-Ile-Asn-His-Arg-Leu]” was tested. Which “cytotoxic activity of T cells derived from peripheral blood of a cancer patient” value did it give?
A: specifically injured target C1R-A24 cells
